Test results as given in patent US20160237032A1, “PROCESS TO MANUFACTURE N-[(3S)-1-[4-[(3-FLUOROPHENYL)METHOXY]PHENYL]-5-OXO-PYRROLIDIN-3-YL]ACETAMIDE” (Hoffmann-La Roche Inc., priority 2013, published 2016).

Test: thermodynamic stability of polymorphic forms
Assay type: physicochemical
Conditions: at room temperature

thermodynamic stability of the crystal form: thermodynamically stable form
Structure (SMILES): CC(=O)N[C@H]1CC(=O)N(c2ccc(OCc3cccc(F)c3)cc2)C1 [Polymorph B, N-[(3S)-1-[4-[(3-fluorophenyl)methoxy]phenyl]-5-oxo-pyrrolidin-3-yl]acetamide]
